# Reference: a melting point compilation (Tetko et al.; mined from patent text by program, amines drawn as free bases though some values may be those of a salt)
row,melting point [°C],SMILES
1,55,COC(=O)C(OC)(OC)c1ccccc1Br
2,233 to 234,COc1c(CCc2ccc(NS(C)(=O)=O)cc2)cc(N2CCC(=O)NC2=O)cc1C(C)(C)C
3,151 to 152,COc1ccc(C(=O)N2c3ccc(OC)cc3CC2C(=O)O)cc1 (stereo not drawn)
4,112 to 115,COc1cc(C)n2nc(SCc3ccccc3)nc2n1
5,204 to 205,CCOCc1nc2c(N)nc3cc(-c4ccsc4)ccc3c2n1CC(C)(C)O
6,83 to 84,COc1ccc(C(O)c2ccccc2OC)cn1 (stereo not drawn)
7,153 to 154,CCCCCC(CC(=O)Nc1cc(C(=O)O)ccc1C(C)(C)C)c1ccc(OC)cc1OC (stereo not drawn)
8,82 to 84,O=C1C(=O)c2ccccc2C2=C1SCC1(CCN(CC(O)Cc3ccccc3)CC1)O2 (stereo not drawn)
9,207 to 209,CC1CC(=O)NN=C1c1ccc(N=Cc2ccccc2O)cc1 (stereo not drawn)
10,192 to 194,Oc1cccc(-c2ccc3cc(O)ccc3c2)c1
11,177 to 178,COC(=O)c1cc2ccc(Cl)cc2n1CC#N
12,65 to 70,CCOC(=O)C(NC(=O)OCc1ccccc1)C(=O)O (stereo not drawn)
13,124 to 125,O=Cc1ccc(-c2ccccc2Cl)cc1
14,95 to 97,OC(COc1ccc2nncn2n1)CN1CCN(C(c2ccccc2)c2ccccc2)CC1 (stereo not drawn)
15,204 to 205,CCOCc1nc2c(N)nc3ccccc3c2n1CC1CC(C)=NO1 (stereo not drawn)
16,266 to 268,Cc1n[nH]c(=O)c(-c2c(F)cc(F)cc2F)c1-c1ccc2ccccc2c1
17,71 to 72,O=C(F)N(SN1CCOCC1)c1ccccc1
18,111 to 112,O=C1[C@H]2CCC[C@H]2N(C(=O)CCCCCBr)c2ccccc2N1Cc1ccccc1 (relative stereo)
19,188 to 190,COc1ccc(CN2C(C(=O)Nc3ccccn3)=C(O)c3sc4ccccc4c3S2(=O)=O)cc1
20,109 to 112,Cc1cc(Cl)ccc1-c1cccc2c1OC(CN)CN2C (stereo not drawn)
21,160 to 162,CC(=O)c1ccc(-c2ccc(OCc3ccc4ccccc4n3)cc2)c([N+](=O)[O-])c1
22,161 to 164,CCOC(=O)c1c[nH]c(Br)c1-c1ccc(Cl)cc1
23,192 to 193,Cc1c(C(=O)O)oc2ccccc2c1=O
24,258 to 260,CN(c1cccc2cc(-c3ncc(C(=O)O)s3)[nH]c12)S(=O)(=O)c1cccs1
25,163 to 165,COc1cc(S(=O)(=O)N2CCN(C(=O)C=C(c3ccccc3)c3ccccc3)CC2)cc(OC)c1OC
26,35 to 38,COc1ccc(F)cc1OCCCl
27,84 to 86,CCOC(=N)C1(O)CCCc2ccccc21 (stereo not drawn)
28,274,COC(=O)CCCc1cc2nc(Cl)ccc2n1S(=O)(=O)c1ccc2nc(NC(C)=O)sc2c1

# Continued, molecule first:
row,SMILES,melting point [°C]
1,N#Cc1ccc(-c2ncc(Br)cn2)cc1,222
2,CS(=O)c1nccc(N)n1 (stereo not drawn),158 to 159
3,Cc1c(OCCCOc2cc(C(C)(C)C)c(O)c(C(C)(C)C)c2C)cc(C(C)(C)C)c(O)c1C(C)(C)C,120
4,CCCn1c(=O)c2[nH]c(/C=C/c3ccc(O)c(OC)c3)nc2n(CCC)c1=O,243 to 245
5,CN1Cc2c(-c3noc(CN4CCCC4)n3)ncn2-c2ccc(F)cc2C1=O,158 to 160
6,CNc1ncc2c(n1)N(C1CCC(C(=O)O)CC1)C(=O)N(c1c(F)c(OC)cc(OC)c1F)C2 (stereo not drawn),148
7,CC(C)N(C)c1cccc([N+](=O)[O-])c1C#N,70 to 72
8,CC(C)OC(=O)N1c2cncnc2NC(=O)C1C (racemic),160 to 162
9,O=[N+]([O-])c1ccc(N2CCN(CC(O)(Cn3cncn3)c3ccc(Cl)cc3Cl)CC2)cc1 (stereo not drawn),168
10,CC(C)(C)N1C(O)c2cccc(Cl)c2S1(=O)=O (stereo not drawn),139 to 141
11,CN(C)CCCOc1ccc(C[C@H](NC(=O)[C@@H]2CCCN2S(=O)(=O)c2cn(C)cn2)C(=O)O)cc1,> 200
12,CCc1n[nH]c(=O)n1N,171
13,CC(C)C1(C)C(=O)NC2(O)c3ncccc3C(=O)N21 (stereo not drawn),151 to 153
14,Nc1ccc2c3c(cccc13)C(=O)N([C@@H]1CN3CCC1CC3)C2=O,305 to 308
15,CC(C)(C)NC(=O)[C@@H]1C[C@@H](O)CN1C(=O)OC(C)(C)C,192 to 193
16,Nc1nc(O)c2c(n1)CCCS2,> 300
17,CS(=O)(=O)c1c(C(=O)c2cnoc2C2CC2)ccc2c1OC(F)(F)O2,162 to 163
18,CC(C)(C)OC(=O)N1CCN(CCOC(N)=O)CC1,135 to 136
19,CC(C)(C)NC(=O)Nc1ccc(-c2c[nH]c(=O)cn2)cc1,> 300
20,CCOC(=O)C(=NO)C(=O)OCC,86.5 to 88
21,CCOC(=O)C(=O)Nc1c(C)cc(C(F)(F)F)cc1[N+](=O)[O-],118 to 120
22,COC(=O)Cc1cc([N+](=O)[O-])c(OC)c2c1N(C(C)=O)CC2,181 to 182
23,CCCCc1nc2cncc(C)c2[nH]1,111 to 124

row,SMILES,melting point [°C]
1,CC(C)(C=O)C(=O)C(C)(Cc1ccc(C(C)(C)C)cc1)C(=O)O (stereo not drawn),116 to 118
2,CC(C)(C)OC(=O)N1CCC(C2=C(C#N)C(c3cccc(C#N)c3Br)c3c[nH]nc3N2)CC1 (stereo not drawn),> 270
3,CC(C)(C)C(=O)C(O)NC(=O)c1ccc(Cl)cc1 (stereo not drawn),130
4,Oc1ccc(OC[C@@H](O)CNCCc2ccc(-n3c(CCC4CCCC4)nc4cccnc43)cc2)cc1,59 to 61
5,O=C(c1ccnc(F)c1)N1CCC[C@H](c2nc(-c3ccc(F)cc3)no2)C1,93 to 95
6,CCOC(=O)C1=C(COCc2ccc(CN3CCOCC3)o2)NC(C)=C(C(=O)OC)C1c1ccccc1Cl (stereo not drawn),85 to 87
7,COc1cc2c(cc1Nc1ncc(Cl)c(Nc3ccc(N4CCOCC4)cc3OC)n1)CCN(CC(=O)N(C)C)CC2,67 to 76
8,CC(/C=C/c1c(C)sc(C)c1C)=C(F)\C=C\C(C)=C\C=O,129 to 131
9,CC1=Nc2c(F)c(F)c(F)c(F)c2SN1,290 to 291
10,O=C1c2ccccc2C(=O)N1Cc1ccc(C2=COC(c3cc(Cl)cc(Cl)c3)(C(F)(F)F)C2)cc1Cl (stereo not drawn),99.7
11,C=CC(=O)NCCCCCCCCOc1ccccc1,45 to 47
12,CCOC(=O)c1cc(C#N)ccn1,170 to 172
13,Cc1ccc(-c2c(NS(=O)(=O)c3ccc(C(C)(C)C)cc3)ncnc2OCCOc2ncc(SC(C)C)cn2)cc1,162
14,COc1ccc(CC[C@H]2CNCCN2)cc1,125 to 130
15,CC(=O)C(Cc1nsc2ccc(-n3c(=O)cc(C(F)(F)F)n(C)c3=O)cc12)C(=O)OC(C)(C)C (stereo not drawn),76 to 78
16,CCCCCCCCCCCCCCCCCCOCC(COC(c1ccccc1)(c1ccccc1)c1ccccc1)OC(=O)N1CCOCC1 (stereo not drawn),78 to 79
17,O=C(O)Cn1c(=O)c(=O)n(O)c2ccc(Cl)cc21,280 to 282
18,C=Cc1c(NC(=O)c2cn(C)nc2C(F)(F)F)cccc1C(C)(C)C,118 to 119
19,COC=Nc1c(C#N)c(C)nn1-c1c(Cl)cc(C(F)(F)F)cc1Cl,75 to 78
20,COC(=O)[C@H](O[Si](C)(C)C)[C@@H](O[Si](C)(C)C)C(=O)OC,75
21,Cc1ccc(CC(O)(P(=O)(O)O)P(=O)(O)O)cc1,211 to 213
22,Cc1ncc(C(O)=S)cc1OC1CCCC1,177 to 178
